Measured values as given in PMC9592910, “Tissue distribution and integrated pharmacokinetic properties of major effective constituents of oral Gegen-Qinlian decoction in mice” (Frontiers in Pharmacology, 2022).
Marks after values point to notes of the source that are not given here.

Assays:
Type in all cases: in vivo, Kunming mice
[1] = Pharmacokinetics of GQD constituents in the portal vein of mice after oral GQD; conditions: for AUC(0-t): read-out: AUC0–24 h
Method: (§1) Fifty-four Kunming mice were randomly divided into nine groups according to body weight and gender (3 male and three female in each group). Each group was orally administered with water solution (0.2 ml/10 g body weight) of the GQD extract powder at the dosage of 6.1 g/kg body weight. The dosage of GQD extract powder equals to 18 g/kg herbal pieces of GQD, which is equivalent to its clinical dosage. At each designed time point (0.08, 0.25, 0.5, 1, 2, 4, 8, 12, and 24 h) after oral administration, six mice were anesthetized with ether, and blood was collected from the portal vein (about 0.2 ml, aspirated in a 1 ml heparinized syringe) and then the systemic circulation (about 0.2 ml, collected in heparinized tubes after removal of the eyeball) of the mice to prepare plasma samples, and the livers and the colons were removed to prepare respective homogenate. After pretreatment, the concentrations of 19 major constituents of GQD in each sample were measured by the validated LC-MS/MS method (see “2.3”). Then the C-T curves of the constituents in the plasma and the tissue homogenates were respectively drawn and their pharmacokinetic parameters were respectively calculated.
(§2) It should be noted that the pharmacokinetic parameters of a GQD constituent was calculated based on its average concentration in six mice at each time point. The results were expressed as mean ± SD.

[2] = Pharmacokinetics/tissue distribution of GQD constituents in the colons of mice after oral GQD
Method: (§3) The liver and the colon homogenates were prepared with 10 times (V: W) the volume of ascorbic acid solution (200 μg/ml). Then the homogenates were pretreated as plasma to obtain the tissue samples for LC-MS/MS analysis. Fifty-four Kunming mice were randomly divided into nine groups according to body weight and gender (3 male and three female in each group). […] Then the C-T curves of the constituents in the plasma and the tissue homogenates were respectively drawn and their pharmacokinetic parameters were respectively calculated. […] It should be noted that the pharmacokinetic parameters of a GQD constituent was calculated based on its average concentration in six mice at each time point. The results were expressed as mean ± SD.

[3] = Pharmacokinetics/tissue distribution of GQD constituents in the livers of mice after oral GQD
Method: as §3

[4] = Pharmacokinetics of GQD constituents in the systemic circulation of mice after oral GQD; conditions: for AUC(0-t): read-out: AUC0–24 h
Method: as §1, §2

[5] = both, Kunming, mouse, systemic circulation plasma, po, […], systemic circulation plasma, mice, oral GQD […], read-out: T1/2 (converted)
[6] = both, Kunming, mouse, systemic circulation plasma, po, […], systemic circulation plasma, mice, oral GQD […], read-out: Tmax
[7] = both, Kunming, mouse, systemic circulation plasma, mice, oral GQD 6.1 g/kg
[8] = both, Kunming, mouse, portal vein plasma, po, […], portal vein plasma, mice, oral GQD extract […], read-out: Tmax
[9] = both, Kunming, mouse, portal vein plasma, mice, oral GQD extract 6.1 g/kg
[10] = both, Kunming, mouse, portal vein plasma, mice, oral GQD extract 6.1 g/kg, read-out: T1/2 (converted)
[11] = both, Kunming, mouse, colon (homogenate), po, […], colon, mice, oral GQD extract […], read-out: T1/2 (converted)
[12] = both, Kunming, mouse, colon (homogenate), colon, mice, oral GQD extract 6.1 g/kg
[13] = both, Kunming, mouse, colon (homogenate), colon, mice, oral GQD extract 6.1 g/kg, read-out: Tmax
[14] = both, Kunming, mouse, liver (homogenate), po, […], liver, mice, oral GQD extract […], read-out: T1/2 (converted)
[15] = both, Kunming, mouse, liver (homogenate), liver, mice, oral GQD extract 6.1 g/kg
[16] = both, Kunming, mouse, liver (homogenate), liver, mice, oral GQD extract 6.1 g/kg, read-out: Tmax
[17] = systemic circulation plasma, mice, oral GQD […]
[18] = portal vein plasma, mice, oral GQD extract […]
[19] = colon, mice, oral GQD extract […]
[20] = liver, mice, oral GQD extract […]
[21] = both, Kunming, mouse, in vivo, systemic circulation plasma, mice, oral GQD 6.1 g/kg
[22] = both, Kunming, mouse, in vivo, portal vein plasma, mice, oral GQD extract 6.1 g/kg
[23] = both, Kunming, mouse, in vivo, colon, mice, oral GQD extract 6.1 g/kg
[24] = both, Kunming, mouse, in vivo, liver, mice, oral GQD extract 6.1 g/kg
[25] = both, Kunming, mouse, in vivo, po, […], T1/2
[26] = both, Kunming, mouse, in vivo, po, […], Tmax
[27] = both, Kunming, mouse, in vivo, po, […]

SMILES | Tmax [1, 8] | Cmax [1, 9] | MRT [1, 9] | AUC(0-t) [1, 9] | half-life [1, 10] | half-life [2, 11] | Cmax [2, 12] | MRT [2, 12] | Tmax [2, 13] | half-life [3, 14] | Cmax [3, 15] | MRT [3, 15] | Tmax [3, 16] | T1/2 [2, 19] | T1/2 [3, 20] | also measured
COc1cc2c(cc1OC)-c1cc3ccc4c(c3c[n+]1CC2)OCO4 [Epiberberine, epiberberine] | – | – | – | – | – | – | – | – | – | – | – | – | – | – | – | T1/2 ([1]; mouse, in vivo, po, […]): 5.6 h; T1/2 ([2]; mouse, in vivo, po, […]): 3.3 h; AUC0–24 h liv/AUC0–24 h cir ([3]; mouse, in vivo, po): 9.9; AUC0–24 h liv/AUC0–24 h por ([3]; mouse, in vivo, po): 3.8
COc1ccc2c(c1O)-c1c(O)c(OC)cc3c1[C@H](C2)[N+](C)(C)CC3 [Magnoflorine, magnoflorine] | 0.25 h | 38.3 ng/mL | 2.6 h | 161 ng·h/mL | 1.2 h | 2.1 h | 2150 ng/g | 5 h | 4 h | 5.3 h | 53.4 ng/g | 5.3 h | 0.25 h | – | – | half-life [4, 5]: 1.9 h; Tmax [4, 6]: 0.5 h; Cmax [4, 7]: 22.4 ng/mL; MRT [4, 7]: 2.6 h; AUC(0-t) [4, 7]: 94.9 ng·h/mL
COc1cc2c(cc1OC)-c1cc3ccc(OC)c(OC)c3c[n+]1CC2 [Palmatine, palmatine] | – | – | – | – | – | – | – | – | – | – | – | – | – | 3.8 h | 4.6 h | T1/2 [4, 17]: 7.2 h; Tmax [4, 17]: 1.0 h; T1/2 [1, 18]: 3.0 h; Tmax [1, 18]: 4.0 h; Tmax [2, 19]: 4.0 h; Tmax [3, 20]: 2.0 h
COc1ccc2cc3[n+](cc2c1OC)CCc1cc(O)c(O)cc1-3 [Demethyleneberberine, demethyleneberberine] | – | – | – | – | – | – | – | – | – | – | – | – | – | – | – | T1/2 ([2]; mouse, in vivo, po, […]): 2.4 h; T1/2 ([3]; mouse, in vivo, po, […]): 11.1 h
O=c1c(-c2ccc(O)cc2)coc2cc(O[C@@H]3O[C@H](CO)[C@@H](O)[C@H](O)[C@H]3O)ccc12 [Daidzin, daidzin] | – | – | – | – | – | – | – | – | – | – | – | – | – | – | – | Cmax [4, 21]: 49 ng/mL; MRT [4, 21]: 1.8 h; AUC(0-t) [4, 21]: 85.7 ng·h/mL; half-life ([4]; both, Kunming, mouse, in vivo, systemic circulation plasma, mice, oral GQD 6.1 g/kg, read-out: T1/2 (converted)): 1.8 h; Tmax ([4]; both, Kunming, mouse, in vivo, systemic circulation plasma, mice, oral GQD 6.1 g/kg, read-out: Tmax): 0.25 h; Cmax [1, 22]: 76.9 ng/mL; MRT [1, 22]: 2 h; AUC(0-t) [1, 22]: 151 ng·h/mL; half-life ([1]; both, Kunming, mouse, in vivo, portal vein plasma, mice, oral GQD extract 6.1 g/kg, read-out: T1/2 (converted)): 1.8 h; Tmax ([1]; both, Kunming, mouse, in vivo, portal vein plasma, mice, oral GQD extract 6.1 g/kg, read-out: Tmax): 0.25 h; Cmax [2, 23]: 114 ng/g; MRT [2, 23]: 9.9 h; half-life ([2]; both, Kunming, mouse, in vivo, colon, mice, oral GQD extract 6.1 g/kg, read-out: T1/2 (converted)): 11 h; Tmax ([2]; both, Kunming, mouse, in vivo, colon, mice, oral GQD extract 6.1 g/kg, read-out: Tmax): 1 h; Cmax [3, 24]: 54.1 ng/g; MRT [3, 24]: 3.6 h; half-life ([3]; both, Kunming, mouse, in vivo, liver, mice, oral GQD extract 6.1 g/kg, read-out: T1/2 (converted)): 3.4 h; Tmax ([3]; both, Kunming, mouse, in vivo, liver, mice, oral GQD extract 6.1 g/kg, read-out: Tmax): 0.5 h
COc1ccc2cc3[n+](cc2c1O)CCc1cc2c(cc1-3)OCO2 [Berberrubine, berberrubine] | 0.25 h | 10.3 ng/mL | 4.4 h | 67 ng·h/mL | 5.1 h | 14.3 h | 293 ng/g | 10.1 h | 4 h | 15 to 19 h | 186 ng/g | 11 h | 4 h | – | 18.2# h | –
COc1c(O[C@@H]2O[C@H](C(=O)O)[C@@H](O)[C@H](O)[C@H]2O)cc(O)c2c(=O)cc(-c3ccccc3)oc12 [Wogonoside, wogonoside] | – | – | – | – | – | – | – | – | – | – | – | – | – | – | – | T1/2 ([4]; mouse, in vivo, po, […]): 3.9 h; T1/2 ([1]; mouse, in vivo, po, […]): 2.6 h; AUC0–24 h liv/AUC0–24 h cir ([3]; mouse, in vivo, po): 0.15; AUC0–24 h liv/AUC0–24 h por ([3]; mouse, in vivo, po): 0.03; T1/2 ([3]; mouse, in vivo, po, […]): 16.2 h
O=C(O)[C@H]1O[C@@H](Oc2cc3oc(-c4ccccc4)cc(=O)c3c(O)c2O)[C@H](O)[C@@H](O)[C@@H]1O [Baicalin, baicalin] | 4 h | 8150 ng/mL | 4.5 h | 46300 ng·h/mL | 2 h | 15 to 19 h | 3460 ng/g | 9.9 h | 1 h | 1 to 2 h | 5710 ng/g | 3.7 h | 2 h | 18.6# h | 1.7 h | half-life [4, 5]: 3.1 h; Tmax [4, 6]: 4 h; Cmax [4, 7]: 1450 ng/mL; MRT [4, 7]: 5.1 h; AUC(0-t) [4, 7]: 8670 ng·h/mL
O=c1c(-c2ccc(O)cc2)coc2cc(O)ccc12 [Daidzein, daidzein] | – | – | – | – | – | – | – | – | – | – | – | – | – | – | – | half-life [4, 25]: 1.5 h; Tmax [4, 26]: 0.25 to 0.5 h; half-life [1, 27]: 2.6 h; Tmax [1, 26]: 0.25 to 0.5 h; Tmax [2, 27]: 1 h; T1/2 [3, 27]: 3.6 h; Tmax [3, 27]: 0.25 h; half-life [3, 25]: 3 to 4 h
CC1(C)[C@@H](O[C@H]2O[C@H](C(=O)O)[C@@H](O)[C@H](O)[C@H]2O[C@@H]2O[C@H](C(=O)O)[C@@H](O)[C@H](O)[C@H]2O)CC[C@]2(C)[C@H]3C(=O)C=C4[C@@H]5C[C@@](C)(C(=O)O)CC[C@]5(C)CC[C@@]4(C)[C@]3(C)CC[C@@H]12 [Glycyrrhizic acid, glycyrrhizic acid] | 2 h | 77.1 ng/mL | 3.7 h | 422 ng·h/mL | 2.9 h | 3 to 4 h | 2010 ng/g | 4.8 h | 2 h | 3.8 h | 148 ng/g | 2.8 h | 1 h | 3.3 h | – | –
O=C1C[C@@H](c2ccc(O)cc2)Oc2cc(O)ccc21 [Liquiritigenin, liquiritigenin] | – | – | – | – | – | – | – | – | – | – | – | – | – | 3.4 h | – | T1/2 [1, 18]: 5.9 h; Tmax [1, 18]: 2.0 h; Tmax [2, 19]: 4.0 h; Tmax [3, 20]: 0.25 h
COc1c(O)cc(O)c2c(=O)cc(-c3ccccc3)oc12 [Wogonin, wogonin] | 2 h | 1220 ng/mL | 3.3 h | 4510 ng·h/mL | 1 h | 2 to 3 h | 535 ng/g | 6.1 h | 4 h | 2 to 3 h | 839 ng/g | 5 h | 4 h | 3.2 h | 2.6 h | half-life [4, 5]: 1.5 h; Tmax [4, 6]: 2 h; Cmax [4, 7]: 64.7 ng/mL; MRT [4, 7]: 3.6 h; AUC(0-t) [4, 7]: 300 ng·h/mL
c1c2c(cc3c1OCO3)-c1cc3ccc4c(c3c[n+]1CC2)OCO4 [Coptisine, coptisine] | – | – | – | – | – | – | – | – | – | – | – | – | – | – | – | half-life [4, 25]: 10.8 h; Tmax [4, 26]: 0.25 h; half-life [1, 27]: 4.7 h; Tmax [1, 26]: 4 h; Tmax [2, 27]: 4 h; half-life [2, 25]: 4.3 h; Kp ([3]; both sexes, Kunming, mouse, in vivo, po, AUC0–24 h liv/AUC0–24 h por): 10.5; Tmax [3, 27]: 2 h; half-life [3, 25]: 3.7 h
CC1(C)[C@@H](O)CC[C@]2(C)[C@H]3C(=O)C=C4[C@@H]5C[C@@](C)(C(=O)O)CC[C@]5(C)CC[C@@]4(C)[C@]3(C)CC[C@@H]12 [Glycyrrhetinic acid, glycyrrhetinic acid] | 4 h | 643 ng/mL | 7 h | 5330 ng·h/mL | 4.7 h | 4 to 5 h | 1830 ng/g | 7 h | 4 h | 6 to 7 h | 910 ng/g | 8.6 h | 4 h | 4.4 h | 6.6# h | half-life [4, 5]: ~6 h; Tmax [4, 6]: 4 h; Cmax [4, 7]: 196 ng/mL; MRT [4, 7]: 8.4 h; AUC(0-t) [4, 7]: 2120 ng·h/mL; T1/2 [4, 17]: 6.2# h
